# Laboratory results taken from a melting point compilation (Tetko et al.; mined from patent text by program, amines drawn as free bases though some values may be those of a salt).
row,melting point [°C],SMILES
1,> 250,CC(C)(C)NS(=O)(=O)c1ccc(-c2cn(-c3cc(-c4ccc(C(F)(F)F)cc4)cc(C(F)(F)F)n3)cn2)s1
2,195 to 197,N#Cc1cnc2cc(Br)ccc2c1Nc1ccc(Cc2ccccc2)cc1
3,140,CCCCOCCOc1ccc(-c2ccc(N(C)Cc3cnn(C)c3)c(C=C(C)C(=O)O)c2)cc1
4,135 to 145,CC(C)(C)NCC(O)c1cc(Br)c(N)c(C(N)=O)c1 (configuration not stated)
5,62.4 to 63.2,CCOCCOc1ccc(C(=O)Oc2ccc(C#N)c(F)c2)cc1
6,48 to 50,CCCCCCCCCCCCNC(=O)N1c2ccccc2C(C)CC1(C)C (configuration not stated)
7,223 to 224,COc1ccc(NC(=O)Nc2cccc(C(F)(F)F)c2)c(O)n1
8,159 to 162,CON1C=C2N=NC3=C(N2C1)N(c1cc(Cl)ccc1Cl)CC(C)=C3
9,158 to 160,Cc1cc(SC2CC(=O)N(c3ccccc3)C2=O)cc(C(C)(C)C)c1O (configuration not stated)
10,168 to 170,CC(C)c1cccc(C(C)C)c1NS(=O)(=O)CC(=O)NCC(c1ccccc1)C1CCCC1 (configuration not stated)
11,182 to 185,COc1cc(C(N)=O)cc([N+](=O)[O-])c1OC
12,84 to 86,Oc1cc(-n2cc3c(n2)CCCC3)c(Cl)cc1Cl
13,282 to 284,COc1cc2c(Cl)c(C#N)cnc2cc1OCc1ccccc1
14,81.5,C=Cn1ccnc1C#N
15,43 to 45,CCCCCCCCCCCCn1nnnc1CCC(=O)OC
16,134 to 136,O=C(CCCN1CCN(c2cccc(Cl)c2Cl)CC1)N1CCc2ccccc21
17,220 to 222,CC1(C)CN(C(=O)Nc2cccnc2)c2cc(C#N)ccc21
18,250,Cc1cc(-c2cc(C(F)(F)F)n3ncc(C(=O)O)c3n2)ccc1C(F)(F)F
19,78 to 80,N#CC(C#N)=C1N(CCCNC2CCCCC2)CCN1CCN1CCCCC1

row,melting point [°C],SMILES
1,115,N#Cc1ccc(C(=O)N2CCN(C(=O)[C@@H]3CCCN3S(=O)(=O)c3ccc(Cl)c(CBr)c3Cl)CC2)cc1
2,81 to 82.5,CCN(CC)C(=S)SC(C[N+](=O)[O-])c1ccccc1 (configuration not stated)
3,125 to 130,O=[N+]([O-])c1cc([N+](=O)[O-])c(Nc2nc(-c3ccc(Cl)cc3Cl)cs2)c(C(F)(F)F)c1
4,205 to 206,O=c1c2ccc3[nH]cc(CCNS(=O)(=O)c4ccccc4)c3c2ccn1Cc1ccccc1
5,142 to 143,Cc1cc2oc(C#N)cc(=O)c2c(C)c1Cl
6,158 to 160,O=C1CCc2c(-c3ccncc3)sc(-c3ccc(C(F)(F)F)cc3)c21
7,135 to 136,CCc1c(C(F)(F)F)nn(-c2ccc(S(N)(=O)=O)cc2)c1-c1ccc(OC)c(C)c1
8,77 to 78,CC(=NOCCO)c1ccc(S(=O)(=O)c2ccccc2)nc1
9,125 to 128,CN(C)CCNC(=O)N1CCN(c2ccc(Cl)cc2)CC1
10,181 to 184,Nc1c(F)cc(Cn2ccnc2S)cc1F
11,139 to 141,O=[N+]([O-])c1ccc(-c2nnn(Cc3ccccc3)n2)cc1
12,65 to 70,COc1cc2c(cc1Nc1ncc(Cl)c(NC3(C(=O)OC(C)C)CCCC3)n1)CCN(CC(=O)N(C)C)CC2
13,154 to 155,CC(=O)c1ccc2cc(S(N)(=O)=O)sc2c1
14,81,CCOC(=O)c1ccc(C2=CCCc3ccccc32)cc1
15,143 to 144,COc1cccc(-c2cn3cc(-c4cccc(CO)c4F)ccc3n2)c1
16,258,O=C(CN1CCOCC1)Nc1cccc2c1C(=O)c1c-2n[nH]c1-c1ccc(N2CCOCC2)cc1
17,200 to 201,COc1ccc(C=CC(=O)Nc2cnc3c(C)cc(C)cc3c2-c2ccccc2Cl)c(OC)c1OC
18,168 to 171,COC(=O)C=CN1CCN(c2cccc(-n3cnc4cc(-c5ccoc5)ccc43)c2)CC1

# The remaining lines, values behind:
row,SMILES,melting point [°C]
1,COc1cc(SC)sc1C1NC(C)(C)CO1 (configuration not stated),56 to 58
2,CNc1ccc(CN2CCN(C(c3ccccc3)c3ccccc3)CC2)cc1[N+](=O)[O-],121
3,Cc1cn(C2CC(O)C(CO)S2)c(=O)[nH]c1=O (configuration not stated),213 to 215
4,O=C(CCCC1CCCCC1)N1C(=O)OC[C@@H]1Cc1ccccc1,69 to 70
5,OCCn1cc2c(n1)CN=C(c1ccccc1)c1cc(Cl)ccc1-2,173 to 175
6,N#Cc1ccc(CN2CCC(=O)C(C(c3ccc(F)cc3)c3ccc(F)cc3)C2)cc1 (configuration not stated),118 to 120
7,O=S(=O)(N[C@H]1CC[C@H](CCN2CCC(c3cccc4c3CCO4)CC2)CC1)c1ccccc1,130
8,N#Cc1ccc(CCO)nc1,92 to 93
9,CCCCCc1ccc(C(=O)CCCC(=O)O)cc1,104 to 106
10,COc1cc(C(C)C)c2c(c1)S(=O)(=O)N(COc1cc(C)oc(=O)c1Cl)C2=O,182 to 184
11,COc1ccc2[nH]c3c(c2c1)CCN(C(C)=O)C3C (configuration not stated),198 to 200
12,O=C(CCC1=C(n2nc(-c3c(-c4ccccc4)nn4ccccc34)ccc2=O)CCCC1)OCc1ccccc1,111 to 113
13,COc1ccc(C2CCN(C(=O)NCc3ccccn3)CC2)cc1OC1CCCC1,104 to 105
14,CC1(C)Oc2ccc(C#N)cc2[C@@H](N2CCN(C(=O)c3ccco3)CC2=O)[C@@H]1O (relative stereo),226 to 229
15,c1ccc(-c2ccc3[nH]c4ccc(-c5ccccc5)cc4c3c2)cc1,145 to 147
16,Cc1ccc(C#N)c(Nc2ccccc2[N+](=O)[O-])c1,162 to 164
17,CC(C)(C(=O)c1cccnc1)c1ccc(Cl)cc1Cl,103 to 104
18,CC(C)(C)OC(=O)CN(C(=O)CN1C(=O)c2ccccc2C1=O)c1ccccc1Cc1ccccc1,190

row,SMILES,melting point [°C]
1,CCC(=O)c1ccc(SCCCBr)cc1,40 to 41
2,Cc1ccc2c(c1C)OC(C(F)(F)F)C(C(=O)O)=C2 (configuration not stated),245 to 247
3,COC(=O)C1=C(C)NC2=C(C(=O)OC2)C1c1ccccc1C (configuration not stated),224 to 225
4,O=C1CCCc2cc(Sc3cccc(F)c3)cc(F)c21,126 to 127
5,O=c1c2c(c3cccnc3n1-c1ccccc1)N(c1ccccc1)CC2,220 to 222
6,CC(C)CNc1c(N)c2nnnn2c2cnccc12,203 to 204
7,COCC(=O)C1CCC2C3CCC4CC(O)CCC4(C)C3CCC12C (configuration not stated),163 to 164
8,Cc1ccc(CC2=NOS(=O)N2)cc1C (configuration not stated),127 to 130
9,CCN(C(=O)OC(C)(C)C)C1CC=C(c2c[nH]c3ccc([N+](=O)[O-])cc23)CC1 (configuration not stated),217 to 219
10,CC(C)Nc1cc(-c2nc[nH]n2)nc(Cl)c1-c1c(F)cccc1Cl,152
11,COc1ccc(-n2c(S)nc3cc(OC)cc(OC)c3c2=O)cc1,322 to 326
12,FC(F)(F)c1n[nH]c(-c2nc3ccccc3s2)n1,254
13,CCN(CC)CCNC(=O)c1ccc([N+](=O)[O-])cc1OC,59.3
14,O=C(O)c1ccc2c(c1)S(=O)c1ccccc1C2=O (configuration not stated),295 to 296
15,CN1CN(C2CC2)c2ccc(C(N)=O)cc2S1(=O)=O,271 to 273
16,O=C(C(c1ccccc1)n1cnc2[nH]ncc2c1=S)N1CCCCCC1 (configuration not stated),> 230
17,O=S(=O)(O)c1ccc2nc(NC3=NCCN3)[nH]c2c1,> 360
